# Biological target: T1, SMYD2 (Homo sapiens, UniProt Q9NRG4)
# T1 construct: Full length SMYD2 (NP 064582.2) was cloned; His6 (N, cleaved yes); FLAG (N); made in house; host or cells: Sf9 insect cells
# Assay: SMYD2 Biochemical Assay (3H-SAM, biotinylated peptide substrate, Flashplate)
# Settings: IC50 values are an average of n = 1 to n = 50; read-out: SMYD2 Biochem IC50 (μM)*
# In short: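 Methyltransferase activity tracked as 3H transfer from 10 nM 3H-SAM to 60 nM biotinylated peptide, counted after streptavidin Flashplate capture and normalised to DMSO and 1000 uM SAH controls. Enzyme: 1.5 nM full-length Sf9-expressed SMYD2, 30 min compound pre-incubation at room temperature, in Bicine pH 7.6 buffer with 2% DMSO; reactions quenched with 600 uM unlabelled SAM; IC50 from 3- or 4-parameter fit.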
# T1 sequence (Q9NRG4 whole entry): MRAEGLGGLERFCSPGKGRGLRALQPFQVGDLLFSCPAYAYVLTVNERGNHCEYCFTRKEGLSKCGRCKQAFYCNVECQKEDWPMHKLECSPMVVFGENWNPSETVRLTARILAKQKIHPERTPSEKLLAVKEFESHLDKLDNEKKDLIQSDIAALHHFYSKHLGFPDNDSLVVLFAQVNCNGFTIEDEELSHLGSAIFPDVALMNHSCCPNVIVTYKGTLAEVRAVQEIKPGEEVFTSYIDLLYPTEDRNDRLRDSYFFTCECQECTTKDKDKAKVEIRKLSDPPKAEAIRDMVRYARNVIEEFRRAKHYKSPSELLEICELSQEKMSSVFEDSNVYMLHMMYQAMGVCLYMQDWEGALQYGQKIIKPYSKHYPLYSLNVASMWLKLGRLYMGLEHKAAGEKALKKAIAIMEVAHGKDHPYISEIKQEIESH
row,SMILES,IC50 [µM]
1,"C[C@@H]1CN(CC2CCOCC2)C[C@H]1NC(=O)c1cc(C2CC2)on1 (racemic) [compound 170, (±)-trans-5-cyclopropyl-N-[4-methyl-1-(oxan-4-ylmethyl)pyrrolidin-3-yl]-1,2-oxazole-3-carboxamide]",> 50
2,"CC(C)C[C@H]1CN(C(C)C)C[C@@H]1NC(=O)c1cc(C2CC2)on1 (racemic) [compound 154, (±)-trans-5-cyclopropyl-N-[4-(2-methylpropyl)-1-(propan-2-yl)pyrrolidin-3-yl]-1,2-oxazole-3-carboxamide]",> 50
3,"CC(C)CCN1C[C@@H](C)[C@H](NC(=O)c2cc(C3CC3)on2)C1 (racemic) [compound 143, (±)-trans-5-cyclopropyl-N-[4-methyl-1-(3-methylbutyl)pyrrolidin-3-yl]-1,2-oxazole-3-carboxamide]",> 50
4,"COc1ccc(N2C[C@H](C)[C@H](NC(=O)c3cc(C4CC4)on3)C2)cc1 (racemic) [compound 308, (±)-cis-5-cyclopropyl-N-[1-(4-methoxy-phenyl)-4-methyl-pyrrolidin-3-yl]-1,2-oxazole-3-carboxamide]",> 50
5,"C[C@H]1CN(c2ccncc2)C[C@H]1NC(=O)c1cc(C2CC2)on1 (racemic) [compound 319, (±)-cis-5-cyclopropyl-N-[4-methyl-1-(pyridin-4-yl)pyrrolidin-3-yl]-1,2-oxazole-3-carboxamide]",> 50
6,"CC(C)c1cc(C(=O)N[C@@H]2CN(C(C)C)C[C@H]2C)no1 (racemic) [compound 192, (±)-trans-N-[4-methyl-1-(propan-2-yl)pyrrolidin-3-yl]-5-(propan-2-yl)-1,2-oxazole-3-carboxamide]",> 50
7,"CC(C)N1C[C@@H](C)[C@H](NC(=O)c2cc(C(C)(C)C)on2)C1 (racemic) [compound 200, (±)-trans-5-tert-butyl-N-[4-methyl-1-(propan-2-yl)pyrrolidin-3-yl]-1,2-oxazole-3-carboxamide]",> 50
8,"CC(C)N1C[C@@H](NC(=O)c2cc(C3CC3)on2)C[C@H]1COCC#CC1CCCCC1 (racemic) [compound 239, (±)-cis-N-[5-{[(3-cyclo-hexylprop-2-yn-1-yl)oxy]methyl}-1-(propan-2-yl)pyrrolidin-3-yl]-5-cyclopropyl-1,2-oxazole-3-carboxamide]",> 50
9,"C[C@@H]1CN(Cc2c[nH]c3ccccc23)C[C@H]1NC(=O)c1cc(C2CC2)on1 (racemic) [compound 160, (±)-trans-5-cyclopropyl-N-[1-(1H-indol-3-ylmethyl)-4-methyl-pyrrolidin-3-yl]-1,2-oxazole-3-carboxamide]",> 50

# Next, values leading:
row,IC50 [µM],SMILES
1,3.95,"C[C@H]1CN(CC2CCOCC2)C[C@H]1NC(=O)c1cc(C2CC2)on1 (racemic) [compound 175, (±)-cis-5-cyclopropyl-N-[4-methyl-1-(oxan-4-ylmethyl)pyrrolidin-3-yl]-1,2-oxazole-3-carboxamide]"
2,> 50,"C[C@@H]1CN(Cc2ccnc3ccccc23)C[C@H]1NC(=O)c1cc(C2CC2)on1 (racemic) [compound 159, (±)-trans-5-cyclopropyl-N-[4-methyl-1-(quinolin-4-ylmethyl)pyrrolidin-3-yl]-1,2-oxazole-3-carboxamide]"
3,38.2,"C[C@H](c1ccccc1)N1C[C@@H](CO)[C@H](NC(=O)c2cc(C3CC3)on2)C1 [compound 119, 5-cyclopropyl-N-[(3S,4R)-4-(hydroxymethyl)-1-[(1R)-1-phenylethyl]pyrrolidin-3-yl]-1,2-oxazole-3-carboxamide]"
4,3.32,"C[C@H]1CN(Cc2ccc(N3CCCC3)cc2)C[C@H]1NC(=O)c1cc(C2CC2)on1 (racemic) [compound 229, (±)-cis-5-cyclopropyl-N-[4-methyl-1-{[4-(pyrrolidin-1-yl)phenyl]methyl}pyrrolidin-3-yl]-1,2-oxazole-3-carboxamide]"
5,> 50,"CC(C)N1C[C@H](NC(=O)c2cc(C3CC3)on2)[C@@H](C(C)(C)C)C1 (racemic) [compound 146, (±)-trans-N-[4-tert-butyl-1-(propan-2-yl)pyrrolidin-3-yl]-5-cyclopropyl-1,2-oxazole-3-carboxamide]"
6,> 50,"C[C@@H]1CN(Cc2ccc3nonc3c2)C[C@H]1NC(=O)c1cc(C2CC2)on1 [compound 182, N-[(3S,4R)-1-(2,1,3-benzoxadiazol-5-ylmethyl)-4-methyl-pyrrolidin-3-yl]-5-cyclopropyl-1,2-oxazole-3-carboxamide]"
7,5.23,"COc1ccc(CN2C[C@H](C)[C@H](NC(=O)c3cc(C4CC4)on3)C2)c(OC)c1 (racemic) [compound 212, (±)-cis-5-cyclopropyl-N-[1-[(2,4-dimethoxy-phenyl)methyl]-4-methylpyrrolidin-3-yl]-1,2-oxazole-3-carboxamide]"
8,> 50,"CC(=O)Nc1ccc(N2C[C@H](C)[C@H](NC(=O)c3cc(C4CC4)on3)C2)cc1 (racemic) [compound 278, (±)-cis-5-cyclopropyl-N-[1-(4-acetamido-phenyl)-4-methylpyrrolidin-3-yl]-1,2-oxazole-3-carboxamide]"
9,22.8,"CC(C)N1C[C@H](C)[C@H](NC(=O)c2cc(C#N)on2)C1 (racemic) [compound 341, (±)-cis-5-cyano-N-[4-methyl-1-(propan-2-yl)pyrrolidin-3-yl]-1,2-oxazole-3-carboxamide]"
10,20.8,"CCOC(=O)C(C)CN1C[C@H](C)[C@H](NC(=O)c2cc(C3CC3)on2)C1 (relative stereo) [compound 186, cis-ethyl 3-[3-(5-cyclopropyl-1,2-oxazole-3-amido)-4-methylpyrrolidin-1-yl]-2-methylpropanoate]"
11,> 50,"C[C@@H]1CN(Cc2ccc3ncccc3c2)C[C@H]1NC(=O)c1cc(C2CC2)on1 (racemic) [compound 204, (±)-trans-5-cyclopropyl-N-[4-methyl-1-(quinolin-6-ylmethyl)pyrrolidin-3-yl]-1,2-oxazole-3-carboxamide]"
12,11.3,"C[C@H]1CN(CC(C)(C)C)C[C@H]1NC(=O)c1cc(C2CC2)on1 (racemic) [compound 165, (±)-cis-5-cyclopropyl-N-[1-(2,2-dimethyl-propyl)-4-methylpyrrolidin-3-yl]-1,2-oxazole-3-carboxamide]"
13,10.2,"CC(c1cc(C(=O)N[C@@H]2CN(C(C)C)C[C@@H]2C)no1)C(F)F (relative stereo) [compound 344, cis-5-(1,1-difluoropropan-2-yl)-N-[4-methyl-1-(propan-2-yl)pyrrolidin-3-yl]-1,2-oxazole-3-carboxamide]"
14,1.63,"C[C@H]1CN(CC2CCC2)C[C@H]1NC(=O)c1cc(C2CC2)on1 (racemic) [compound 202, (±)-cis-N-[1-(cyclobutyl-methyl)-4-methyl-pyrrolidin-3-yl]-5-cyclopropyl-1,2-oxazole-3-carboxamide]"
15,9.44,"C[C@H]1CN(C(CO)c2ccccc2)C[C@H]1NC(=O)c1cc(C2CC2)on1 (relative stereo) [compound 330, cis-5-cyclopropyl-N-[1-(2-hydroxy-1-phenylethyl)-4-methyl-pyrrolidin-3-yl]-1,2-oxazole-3-carboxamide]"
16,5.28,"CCOC(=O)C1CC1CN1C[C@H](C)[C@H](NC(=O)c2cc(C3CC3)on2)C1 (stereo in doubt) [compound 176, cis-ethyl 2-{[3-(5-cyclopropyl-1,2-oxazole-3-amido)-4-methylpyrrolidin-1-yl]methyl}cyclopropane-1-carboxylate]"

# Same assay, conditions: Table 1; average of n = 1 to n = 50; read-out: SMYD2 Biochem IC50
row,IC50 [µM],SMILES
1,> 50,"C[C@H]1CN(C2CC2)C[C@@H]1NC(=O)c1cc(C2CC2)no1 (racemic) [compound 50, (±)-trans-3-cyclopropyl-N-(1-cyclopropyl-4-methylpyrrolidin-3-yl)isoxazole-5-carboxamide]"
2,9.4,"CCc1cc(C(=O)N[C@@H]2CN(C3CC3)C[C@@H]2C)no1 (racemic) [compound 112, (±)-cis-N-(1-cyclopropyl-4-methylpyrrolidin-3-yl)-5-ethyl-isoxazole-3-carboxamide]"

# Same assay, conditions: Table 2; average of n = 1 to n = 50; read-out: SMYD2 Biochem IC50
row,IC50 [µM],SMILES
1,> 50,"CC(=O)N1CCC(N2C[C@@H](C)[C@@H](NC(=O)c3cc(C4CC4)on3)C2)CC1 (racemic) [compound 83, (±)-cis-N-(1-(1-acetylpiperidin-4-yl)-4-methylpyrrolidin-3-yl)-5-cyclopropylisoxazole-3-carboxamide]"
2,> 50,"CC(=O)N1C[C@H](C)[C@H](NC(=O)c2cc(C3CC3)on2)C1 (racemic) [compound 111, (±)-cis-N-(1-acetyl-4-methylpyrrolidin-3-yl)-5-cyclopropylisoxazole-3-carboxamide]"
3,> 50,"C[C@@H]1CN(C2CCCCC2)C[C@H]1NC(=O)c1cc(C2CC2)on1 (racemic) [compound 96, (±)-trans-N-(1-cyclohexyl-4-methylpyrrolidin-3-yl)-5-cyclopropylisoxazole-3-carboxamide]"
4,48.7,"C[C@@H]1CN(C2CCCC2)C[C@H]1NC(=O)c1cc(C2CC2)on1 (racemic) [compound 99, (±)-trans-N-(1-cyclopentyl-4-methylpyrrolidin-3-yl)-5-cyclopropylisoxazole-3-carboxamide]"
5,17.7,"C[C@H]1CN(Cc2cccnc2)C[C@H]1NC(=O)c1cc(C2CC2)on1 (racemic) [compound 107, (±)-cis-5-cyclopropyl-N-(4-methyl-1-(pyridin-3-ylmethyl)pyrrolidin-3-yl)isoxazole-3-carboxamide]"
6,> 50,"C[C@H]1CN(C(=O)C2CCNCC2)C[C@H]1NC(=O)c1cc(C2CC2)on1 (racemic) [compound 70, (±)-cis-5-cyclopropyl-N-(4-methyl-1-(piperidine-4-carbonyl)pyrrolidin-3-yl)isoxazole-3-carboxamide]"
